Laboratory results taken from EP4685143A1 (Vivozon,Inc., priority 2023, dated 2024).

Each compound was assayed against T1, human HDAC6 enzyme (Homo sapiens, UniProt Q9UBN7) (assay: Fluorescence-based enzyme activity assay). Settings: substrate with fluorescent peptide of p53 residues 379-382, 30°C for 1 hour.
T1 sequence (Q9UBN7 1-1215): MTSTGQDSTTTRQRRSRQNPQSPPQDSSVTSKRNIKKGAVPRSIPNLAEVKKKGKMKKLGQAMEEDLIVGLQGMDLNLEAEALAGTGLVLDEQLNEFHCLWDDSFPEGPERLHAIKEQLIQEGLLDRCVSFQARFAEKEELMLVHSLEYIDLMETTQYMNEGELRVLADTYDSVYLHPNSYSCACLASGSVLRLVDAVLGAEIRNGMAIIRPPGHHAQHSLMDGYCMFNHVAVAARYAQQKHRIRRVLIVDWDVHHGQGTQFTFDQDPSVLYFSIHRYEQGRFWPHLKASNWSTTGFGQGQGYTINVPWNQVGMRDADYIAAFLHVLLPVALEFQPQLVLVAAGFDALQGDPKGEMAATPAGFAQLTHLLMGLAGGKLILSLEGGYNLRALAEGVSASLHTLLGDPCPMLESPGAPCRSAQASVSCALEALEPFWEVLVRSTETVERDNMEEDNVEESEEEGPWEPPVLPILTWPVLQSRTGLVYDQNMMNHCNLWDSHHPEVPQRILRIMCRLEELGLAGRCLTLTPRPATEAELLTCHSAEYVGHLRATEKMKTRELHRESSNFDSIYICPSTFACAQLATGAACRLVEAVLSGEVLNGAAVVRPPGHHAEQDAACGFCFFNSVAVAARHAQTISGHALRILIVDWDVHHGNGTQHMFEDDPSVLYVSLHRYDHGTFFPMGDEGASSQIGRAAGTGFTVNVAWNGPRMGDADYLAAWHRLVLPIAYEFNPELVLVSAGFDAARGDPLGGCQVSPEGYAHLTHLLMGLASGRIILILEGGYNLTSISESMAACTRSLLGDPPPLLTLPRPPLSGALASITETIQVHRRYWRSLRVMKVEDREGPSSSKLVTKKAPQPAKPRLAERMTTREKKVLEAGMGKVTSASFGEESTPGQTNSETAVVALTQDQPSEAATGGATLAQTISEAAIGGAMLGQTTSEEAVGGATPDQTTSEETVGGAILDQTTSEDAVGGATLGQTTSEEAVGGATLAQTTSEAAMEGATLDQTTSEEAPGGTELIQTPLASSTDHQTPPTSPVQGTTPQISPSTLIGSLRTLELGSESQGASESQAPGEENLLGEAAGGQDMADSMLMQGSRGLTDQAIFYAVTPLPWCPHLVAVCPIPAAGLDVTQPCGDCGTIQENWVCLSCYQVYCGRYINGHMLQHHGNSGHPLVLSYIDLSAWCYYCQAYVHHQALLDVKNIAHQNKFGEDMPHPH
Type: biochemical
Method: Experimental Example 1: Fluorescence-based enzyme activity assay
In order to measure the inhibitory effect of the compounds on the activity of histone deacetylase 6 (HDAC6), an enzyme activity assay was performed to evaluate the enzyme activity by reacting the human HDAC6 enzyme with a substrate to which a fluorescent peptide of p53 residues 379-382 was attached. The test compounds were dissolved in 100% DMSO at a concentration of 10 mM to prepare a stock solution. A starting concentration of 30 µM was prepared from the stock solution, followed by 1/3 serial dilutions to prepare the test buffer solution. Trichostatin A (TSA)-which is the reference compound used to confirm the validity of the experiment-was serially diluted by 1/3 with the test buffer solution, starting from the highest concentration of 1 µM. To react the test compounds and TSA prepared in the test buffer with the HDAC6 enzyme, they were dispensed into a 96-well black plate and spin-down of the plate was performed. Then, the reaction was carried out at room temperature for 10 minutes. After 10 minutes, the substrate was dispensed, and the plate was sealed. The reaction was carried out at 30°C for 1 hour under light-blocking conditions. Fluorescence values were measured using a plate reader (wavelength: excitation/emission = 360/460 nm). The fluorescence measurements were normalized to the HDAC6 enzyme-treated group as 100% and the untreated group as 0%, respectively. […]
With `O=c1cc(-c2noc(C(F)(F)F)n2)ccn1CC#Cc1ccccc1` [Example 2, 1-(3-phenylprop-2-yn-1-yl)-4-(5-(trifluoromethyl)-1,2,4-oxadiazol-3-yl)pyridin-2(1H)-one] the IC50 was 500 to 1000 nM.
Work on `CS(=O)(=O)c1cccc(C#CCn2ccc(-c3nnc(C(F)F)o3)cc2=O)c1` [Example 32, 4-(5-(difluoromethyl)-1,3,4-oxadiazol-2-yl)-1-(3-(3-(methylsulfonyl)phenyl)prop-2-yn-1-yl)pyridin-2(1H)-one] yielded an IC50 of under 100 nM.
With `O=c1cc(-c2nnc(C(F)F)o2)ccn1CC#Cc1ccccc1` [Example 1, 4-(5-(difluoromethyl)-1,3,4-oxadiazol-2-yl)-1-(3-phenylprop-2-yn-1-yl)pyridin-2(1H)-one] the IC50 was under 100 nM.
With `COc1cccc(C#CCn2ccc(-c3nnc(C(F)F)o3)cc2=O)c1` [Example 21, 4-(5-(difluoromethyl)-1,3,4-oxadiazol-2-yl)-1-(3-(3-methoxyphenyl)prop-2-yn-1-yl)pyridin-2(1H)-one] the IC50 was under 100 nM.
For `O=c1cc(-c2nnc(C(F)F)o2)ccn1CC#Cc1ccc2scnc2c1` [Example 40, 1-(3-(benzo[d]thiazol-5-yl)prop-2-yn-1-yl)-4-(5-(difluoromethyl)-1,3,4-oxadiazol-2-yl)pyridin-2(1H)-one], the IC50 was 100 to 500 nM.
Work on `O=c1cc(-c2nnc(C(F)F)o2)ccn1CC#Cc1ccncc1` [Example 8, 4-(5-(difluoromethyl)-1,3,4-oxadiazol-2-yl)-1-(3-(pyridin-4-yl)prop-2-yn-1-yl)pyridin-2(1H)-one] yielded an IC50 of under 100 nM.
`O=c1cc(-c2nnc(C(F)F)o2)ccn1CC#Cc1ccccc1Cl` [Example 16, 1-(3-(2-chlorophenyl)prop-2-yn-1-yl)-4-(5-(difluoromethyl)-1,3,4-oxadiazol-2-yl)pyridin-2(1H)-one] gave an IC50 of under 100 nM.
`O=c1cc(-c2nnc(C(F)F)o2)ccn1CC#Cc1ccc(Cl)cc1` [Example 14, 1-(3-(4-chlorophenyl)prop-2-yn-1-yl)-4-(5-(difluoromethyl)-1,3,4-oxadiazol-2-yl)pyridin-2(1H)-one] showed an IC50 of under 100 nM.
For `O=c1cc(-c2noc(C(F)(F)F)n2)ccn1CC#Cc1ccccc1F` [Example 6, 1-(3-(2-fluorophenyl)prop-2-yn-1-yl)-4-(5-(trifluoromethyl)-1,2,4-oxadiazol-3-yl)pyridin-2(1H)-one], the IC50 was 500 to 1000 nM.
Compound `O=c1cc(-c2nnc(C(F)F)o2)ccn1CC#Cc1ccsc1` [Example 43, 4-(5-(difluoromethyl)-1,3,4-oxadiazol-2-yl)-1-(3-(thiophen-3-yl)prop-2-yn-1-yl)pyridin-2(1H)-one] has an IC50 of under 100 nM.
With `Cc1nc2ccc(C#CCOc3cc(-c4nnc(C(F)F)o4)ccn3)cc2s1` [Example 41] the IC50 was 500 to 1000 nM.
In the case of `O=c1cc(-c2noc(C(F)(F)F)n2)ccn1CC#Cc1ccncc1` [Example 3, 1-(3-(pyridin-4-yl)prop-2-yn-1-yl)-4-(5-(trifluoromethyl)-1,2,4-oxadiazol-3-yl)pyridin-2(1H)-one], the IC50 is reported as 100 to 500 nM.
For `Cc1cncc(C#CCn2ccc(-c3nnc(C(F)F)o3)cc2=O)c1` [Example 29, 4-(5-(difluoromethyl)-1,3,4-oxadiazol-2-yl)-1-(3-(5-methylpyridin-3-yl)prop-2-yn-1-yl)pyridin-2(1H)-one], the IC50 was under 100 nM.
`O=c1cc(-c2nnc(C(F)F)o2)ccn1CC#Cc1cccc(F)c1` [Example 12, 4-(5-(difluoromethyl)-1,3,4-oxadiazol-2-yl)-1-(3-(3-fluorophenyl)prop-2-yn-1-yl)pyridin-2(1H)-one] showed an IC50 of under 100 nM.
`O=c1cc(-c2nnc(C(F)F)o2)ccn1CC#Cc1ccc(F)cc1` [Example 11, 4-(5-(difluoromethyl)-1,3,4-oxadiazol-2-yl)-1-(3-(4-fluorophenyl)prop-2-yn-1-yl)pyridin-2(1H)-one] gave an IC50 of under 100 nM.
In the case of `O=c1cc(-c2nnc(C(F)F)o2)ccn1CC#Cc1ccccc1F` [Example 13, 4-(5-(difluoromethyl)-1,3,4-oxadiazol-2-yl)-1-(3-(2-fluorophenyl)prop-2-yn-1-yl)pyridin-2(1H)-one], the IC50 is reported as under 100 nM.
For `O=c1cc(-c2noc(C(F)(F)F)n2)ccn1CC#Cc1cccnc1` [Example 4, 1-(3-(pyridin-3-yl)prop-2-yn-1-yl)-4-(5-(trifluoromethyl)-1,2,4-oxadiazol-3-yl)pyridin-2(1H)-one], the IC50 was 100 to 500 nM.
With `O=c1cc(-c2nnc(C(F)F)o2)ccn1CC#Cc1ccccn1` [Example 10, 4-(5-(difluoromethyl)-1,3,4-oxadiazol-2-yl)-1-(3-(pyridin-2-yl)prop-2-yn-1-yl)pyridin-2(1H)-one] the IC50 was under 100 nM.
`Cc1ncc(C#CCn2ccc(-c3nnc(C(F)F)o3)cc2=O)[nH]1` [Example 42, 4-(5-(difluoromethyl)-1,3,4-oxadiazol-2-yl)-1-(3-(2-methyl-1H-imidazol-5-yl)prop-2-yn-1-yl)pyridin-2(1H)-one] gave an IC50 of under 100 nM.
With `O=c1cc(-c2nnc(C(F)F)o2)ccn1CC#Cc1cccnc1` [Example 9, 4-(5-(difluoromethyl)-1,3,4-oxadiazol-2-yl)-1-(3-(pyridin-3-yl)prop-2-yn-1-yl)pyridin-2(1H)-one] the IC50 was under 100 nM.
Work on `O=c1cc(-c2nnc(C(F)F)o2)ccn1CC#Cc1cccc(Cl)n1` [Example 22, 1-(3-(6-chloropyridin-2-yl)prop-2-yn-1-yl)-4-(5-(difluoromethyl)-1,3,4-oxadiazol-2-yl)pyridin-2(1H)-one] yielded an IC50 of under 100 nM.
Compound `O=c1cc(-c2nnc(C(F)F)o2)ccn1CC#Cc1ccc(F)c(Cl)c1` [Example 34, 1-(3-(3-chloro-4-fluorophenyl)prop-2-yn-1-yl)-4-(5-(difluoromethyl)-1,3,4-oxadiazol-2-yl)pyridin-2(1H)-one] has an IC50 of under 100 nM.
`O=c1cc(-c2nnc(C(F)F)o2)ccn1CC#Cc1cc(F)cc(Cl)c1` [Example 35, 1-(3-(3-chloro-5-fluorophenyl)prop-2-yn-1-yl)-4-(5-(difluoromethyl)-1,3,4-oxadiazol-2-yl)pyridin-2(1H)-one] was tested, and the IC50 was under 100 nM.
`O=c1cc(-c2noc(C(F)(F)F)n2)ccn1CC#Cc1ccccn1` [Example 5, 1-(3-(pyridin-2-yl)prop-2-yn-1-yl)-4-(5-(trifluoromethyl)-1,2,4-oxadiazol-3-yl)pyridin-2(1H)-one] showed an IC50 of 100 to 500 nM.
For `O=c1cc(-c2nnc(C(F)F)o2)ccn1CC#Cc1cccc(Cl)c1F` [Example 33, 1-(3-(3-chloro-2-fluorophenyl)prop-2-yn-1-yl)-4-(5-(difluoromethyl)-1,3,4-oxadiazol-2-yl)pyridin-2(1H)-one], the IC50 was under 100 nM.
